Results on 16 molecules are retold here after PMC11241395 (International Journal of Molecular Sciences, 2024).

In data set [1] the test system is SKBR-3 (human breast adenocarcinoma). Briefly: MTT cytotoxicity assay, SKBR-3. The following applies: SK-BR-3, read-out: IC50 (SD), SKBR-3. Type of data set: cell-based. The procedure:
(§1) This activity was evaluated in vitro using the standard MTT method (enzymatic reduction of 3-[4,5-dimethylthiazole-2-yl]-2,5-diphenyltetrazolium bromide, MTT, to MTT-formazan) based on a viability assay.
(§2) Cytotoxic activity: Human cancer cells SKBR-3 (human breast cancer cell line) and SKOV-3 (ovarian cancer cell line) were cultured in McCoy’s Modified Medium. Human cancer cells PC-3 (human prostate cancer cell line) were cultured in an F-12K medium. The Human Dermal Fibroblast (HDF) cell line was cultured in Fibroblast Basal Medium. The U-87 cell line was cultured in EMEM medium. Each medium was supplemented with 10% foetal bovine serum, 1% L- glutamine, and 1% penicillin/streptomycin solution. The cell lines were kept in an incubator at 37 °C. All the cell lines and mediums were obtained from the American Type Culture Collection (ATCC) supplied by LGC-Standards (Lomianki, Poland).
(§3) The MTT assay was conducted as described earlier.
For orientation: Tetrazolium dyes change colour on reduction, which living cells bring about.

For data set [2], the system named is SKOV-3 (human ovarian cystadenocarcinoma). Briefly: MTT cytotoxicity assay, SKOV-3. Type of data set: cell-based. The settings on record: SK-OV-3, read-out: IC50 (SD), SKOV-3. The procedure:
as §1, §2, §3

For data set [3], the system named is U-87 (human glioblastoma). Kind of data set: MTT cytotoxicity assay, U-87. The settings on record: read-out: IC50 (SD), U-87. The class given is cell-based. The procedure: as §1, §2, §3
In data set [4] the test system is HDF (regular fibroblast cell line). Briefly: MTT cytotoxicity assay, normal HDF cells. The settings on record: Homo sapiens, read-out: IC50 (SD), HDF. Type of data set: cell-based. The procedure:
as §1, §2, §3

The subject of data set [5] is SKBR-3, SKOV-3, PC-3, and U-87 cancer cell lines. Briefly: MTT cytotoxicity assay, four cancer cell lines taken together. Type of data set: cell-based, human. The settings on record: span over the four cancer cell lines. The method, then: as §1, §2, §3
Data set [6] concerns PC-3 (human prostate carcinoma). Kind of data set: MTT cytotoxicity assay, PC-3. The following applies: read-out: IC50 (SD), PC-3. Type of data set: cell-based. The method, then: as §1, §2, §3
Data set [7] can be described thus: DPPH radical-scavenging assay. The settings on record: sample 1.0 mg/mL in DMSO, 30 min, 517 nm; compared with OA (1). The procedure: The results are presented as % inhibition of the DPPH radical and Trolox equivalent, calculated from the standard curve (Figure 4). Activity assays were performed in eight repetitions.
The 2,2-diphenyl-1-picrylhydrazyl (DPPH) assay was performed according to Garbiec et al. with modifications. Briefly, 25 μL of the sample at a concentration of 1.0 mg/mL dissolved in dimethyl sulfoxide (DMSO) was mixed with 175 μL of DPPH solution (3.9 mg in 50 mL of methanol). The reaction mixture was shaken and incubated in the dark at room temperature for 30 min. The control sample contained 25 μL of DMSO and 175 μL of DPPH solution. Absorbance was measured at 517 nm. The inhibition of the DPPH radical by the sample was calculated according to the following formula: DPPH-scavenging activity (%) = ((AC − AS)/AC) × 100% where AC is the absorbance of the control and AS is the absorbance of the sample.
The results were presented as % inhibition of the DPPH radical and Trolox equivalent, calculated from the standard curve. Activity assays were performed in 8 repetitions.
In general terms: The DPPH test is a chemical assay of radical scavenging.

Structures are written as SMILES. pIC50: −log10 of the molar value. “Also recorded” adds a separate entry of the source. Read-outs that look alike come from different tables or passages of the source.

Usually melting point stands for the temperature, or range, at which the solid turns liquid. In turn, `CC1(C)CC[C@]2(C(=O)OCOC(=O)[C@]34CCC(C)(C)CC3C3=CCC5[C@@]6(C)CC[C@H](O)C(C)(C)C6CC[C@@]5(C)[C@]3(C)CC4)CC[C@]3(C)C(=CCC4[C@@]5(C)CC[C@H](O)C(C)(C)C5CC[C@]43C)C2C1` (stereo partly shown) (hydrate or solvate) [Compound 2a] yielded a melting point of 183 to 185 °C.
As usually defined, the pIC50 is the negative decadic logarithm of the IC50, by convention in mol/L. On to `CC1(C)CC[C@]2(C(=O)O)CC[C@]3(C)C(=CC[C@@H]4[C@@]5(C)CC[C@H](O)C(C)(C)[C@@H]5CC[C@]43C)[C@@H]2C1` [1 (OA), Oleanolic acid, reference compound], for which the pIC50 in data set [1] was 4.71; in data set [2] it was 4.73; in data set [3] it was 4.74; in data set [4] (HDF), around 4.60; in data set [5] (Homo sapiens), 4.72 to 4.74.
For the molecule `CC1(C)CC[C@]2(C(=O)OCOC(=O)[C@]34CCC(C)(C)CC3C3=CCC5[C@@]6(C)CC[C@H](O)C(C)(C)C6CC[C@@]5(C)[C@]3(C)CC4)CC[C@]3(C)C(=CCC4[C@@]5(C)CC[C@H](O)C(C)(C)C5CC[C@]43C)C2C1` (stereo partly shown) [Compound 2a], the pIC50 in data set [1] was 5.40; in data set [2], 5.41; in data set [6], 5.47; in data set [3] it was 5.48; in data set [4], 5.18; in data set [5] (Homo sapiens) it was 5.34 to 5.51. Moreover, in data set [7], the “DPPH radical inhibition expressed as Trolox equivalent” value (“DPPH radical inhibition expressed” below) is “by far the highest activity; also recorded: significantly higher”.
Consider `CC1(C)CC[C@]2(C(=O)OCCOC(=O)[C@]34CCC(C)(C)CC3C3=CCC5[C@@]6(C)CC[C@H](O)C(C)(C)C6CC[C@@]5(C)[C@]3(C)CC4)CC[C@]3(C)C(=CCC4[C@@]5(C)CC[C@H](O)C(C)(C)C5CC[C@]43C)C2C1` (stereo partly shown) [Compound 2b], for which the pIC50 in data set [1] was 5.18; in data set [2], 5.19; in data set [6] it was 5.19; in data set [3] it was 5.18; in data set [4], 4.95; in data set [5] (Homo sapiens) it was 5.09 to 5.32. Moreover, the “DPPH radical inhibition expressed” value in data set [7] is given as “highest level of antioxidant activity; also recorded: significantly higher”.
Regarding `CC1(C)CC[C@]2(C(=O)OCCCOC(=O)[C@]34CCC(C)(C)CC3C3=CCC5[C@@]6(C)CC[C@H](O)C(C)(C)C6CC[C@@]5(C)[C@]3(C)CC4)CC[C@]3(C)C(=CCC4[C@@]5(C)CC[C@H](O)C(C)(C)C5CC[C@]43C)C2C1` (stereo partly shown) [Compound 2c], the pIC50 in data set [1] was 5.12; in data set [2] it was 5.09; in data set [6], 5.13; in data set [3], 5.13; in data set [4] it was 4.72; in data set [5] (Homo sapiens), 5.09 to 5.32.
Consider `CC1(C)CC[C@]2(C(=O)OCCCCOC(=O)[C@]34CCC(C)(C)CC3C3=CCC5[C@@]6(C)CC[C@H](O)C(C)(C)C6CC[C@@]5(C)[C@]3(C)CC4)CC[C@]3(C)C(=CCC4[C@@]5(C)CC[C@H](O)C(C)(C)C5CC[C@]43C)C2C1` (stereo partly shown) [Compound 2d], for which the pIC50 in data set [1] is 5.95; in data set [2] it was 5.81; in data set [6] it was 5.79; in data set [3], 5.92; in data set [4], 5.53.
The like results for `CC1(C)CC[C@]2(C(=O)OC/C=C\COC(=O)[C@]34CCC(C)(C)CC3C3=CCC5[C@@]6(C)CC[C@H](O)C(C)(C)C6CC[C@@]5(C)[C@]3(C)CC4)CC[C@]3(C)C(=CCC4[C@@]5(C)CC[C@H](O)C(C)(C)C5CC[C@]43C)C2C1` (stereo partly shown) [Compound 2e] were, in that order, 5.58, 5.68, 5.64, 5.56 and 5.57.
As for `CC1(C)CC[C@]2(C(=O)OC/C=C/COC(=O)[C@]34CCC(C)(C)CC3C3=CCC5[C@@]6(C)CC[C@H](O)C(C)(C)C6CC[C@@]5(C)[C@]3(C)CC4)CC[C@]3(C)C(=CCC4[C@@]5(C)CC[C@H](O)C(C)(C)C5CC[C@]43C)C2C1` (stereo partly shown) [Compound 2f], the pIC50 was 5.29 in data set [1]; 5.32 in data set [2]; 5.29 in data set [6]; 5.31 in data set [3]; 5.56 in data set [4]; 5.09 to 5.32 in data set [5] (Homo sapiens). In addition, in data set [7], the “DPPH radical inhibition expressed” value is recorded as “highest level of antioxidant activity; also recorded: significantly higher”.
As to `CC1(C)CC[C@]2(C(=O)OCCCCCOC(=O)[C@]34CCC(C)(C)CC3C3=CCC5[C@@]6(C)CC[C@H](O)C(C)(C)C6CC[C@@]5(C)[C@]3(C)CC4)CC[C@]3(C)C(=CCC4[C@@]5(C)CC[C@H](O)C(C)(C)C5CC[C@]43C)C2C1` (stereo partly shown) [Compound 2g], the pIC50 in data set [1] was 5.28; in data set [2] it was 5.29; in data set [6] it was 5.24; in data set [3], 5.27; in data set [4], 5.47; in data set [5] (Homo sapiens), 5.09 to 5.32.
Take `CC1(C)CC[C@]2(C(=O)OCCCCCCOC(=O)[C@]34CCC(C)(C)CC3C3=CCC5[C@@]6(C)CC[C@H](O)C(C)(C)C6CC[C@@]5(C)[C@]3(C)CC4)CC[C@]3(C)C(=CCC4[C@@]5(C)CC[C@H](O)C(C)(C)C5CC[C@]43C)C2C1` (stereo partly shown) [Compound 2h]: the pIC50 was 5.22 in data set [1]; 5.27 in data set [2]; 5.27 in data set [6]; 5.23 in data set [3]; 4.76 in data set [4].
`CC1(C)CC[C@]2(C(=O)OCCCCCCCOC(=O)[C@]34CCC(C)(C)CC3C3=CCC5[C@@]6(C)CC[C@H](O)C(C)(C)C6CC[C@@]5(C)[C@]3(C)CC4)CC[C@]3(C)C(=CCC4[C@@]5(C)CC[C@H](O)C(C)(C)C5CC[C@]43C)C2C1` (stereo partly shown) [Compound 2i]: the pIC50 is 5.46 in data set [1]; 5.43 in data set [2]; 5.50 in data set [6]; 5.51 in data set [3]; 5.27 in data set [4]; 5.34 to 5.51 in data set [5] (Homo sapiens).
Consider `CC1(C)CC[C@]2(C(=O)OCCCCCCCCOC(=O)[C@]34CCC(C)(C)CC3C3=CCC5[C@@]6(C)CC[C@H](O)C(C)(C)C6CC[C@@]5(C)[C@]3(C)CC4)CC[C@]3(C)C(=CCC4[C@@]5(C)CC[C@H](O)C(C)(C)C5CC[C@]43C)C2C1` (stereo partly shown) [Compound 2j], for which the pIC50 in data set [1] is 5.00; in data set [2], 4.99; in data set [6], 5.01; in data set [3], 4.97; in data set [4], 4.80; in data set [5] (Homo sapiens) it was 4.97 to 5.01.
With `CC1(C)CC[C@]2(C(=O)OCCCCCCCCCOC(=O)[C@]34CCC(C)(C)CC3C3=CCC5[C@@]6(C)CC[C@H](O)C(C)(C)C6CC[C@@]5(C)[C@]3(C)CC4)CC[C@]3(C)C(=CCC4[C@@]5(C)CC[C@H](O)C(C)(C)C5CC[C@]43C)C2C1` (stereo partly shown) [Compound 2k], the pIC50 in data set [1] is 5.16; in data set [2] it was 5.16; in data set [6], 5.16; in data set [3], 5.13; in data set [4], 4.77; in data set [5] (Homo sapiens) it was 5.09 to 5.32.
For the molecule `CC1(C)CC[C@]2(C(=O)OCCCCCCCCCCOC(=O)[C@]34CCC(C)(C)CC3C3=CCC5[C@@]6(C)CC[C@H](O)C(C)(C)C6CC[C@@]5(C)[C@]3(C)CC4)CC[C@]3(C)C(=CCC4[C@@]5(C)CC[C@H](O)C(C)(C)C5CC[C@]43C)C2C1` (stereo partly shown) [Compound 2l], the pIC50 in data set [1] was 4.73; in data set [2] it was 4.74; in data set [6] it was 4.74; in data set [3] it was 4.73; in data set [4], 4.44; in data set [5] (Homo sapiens) it was 4.74. Also, in data set [5], the pIC50 was 4.73.
Consider `CC1(C)CC[C@]2(C(=O)OCCCCCCCCCCCOC(=O)[C@]34CCC(C)(C)CC3C3=CCC5[C@@]6(C)CC[C@H](O)C(C)(C)C6CC[C@@]5(C)[C@]3(C)CC4)CC[C@]3(C)C(=CCC4[C@@]5(C)CC[C@H](O)C(C)(C)C5CC[C@]43C)C2C1` (stereo partly shown) [Compound 2m], for which the pIC50 in data set [1] is 5.41; in data set [2], 5.34; in data set [6], 5.41; in data set [3], 5.37; in data set [4] it was 5.13; in data set [5] (Homo sapiens), 5.34 to 5.51.
For `CC1(C)CC[C@]2(C(=O)OCCCCCCCCCCCCOC(=O)[C@]34CCC(C)(C)CC3C3=CCC5[C@@]6(C)CC[C@H](O)C(C)(C)C6CC[C@@]5(C)[C@]3(C)CC4)CC[C@]3(C)C(=CCC4[C@@]5(C)CC[C@H](O)C(C)(C)C5CC[C@]43C)C2C1` (stereo partly shown) [Compound 2n], the pIC50 in data set [1] was 5.17; in data set [2], 5.13; in data set [6], 5.16; in data set [3] it was 5.19; in data set [4] it was 5.14; in data set [5] (Homo sapiens) it was 5.09 to 5.32.
